In patent publication US6869964B2, “Heterocyclicsulfonamide hepatitis C virus inhibitors” (Bristol-Myers Squibb Company, priority 2002, dated 2005):
Where two headings read alike, the source gives them in different places.

How the values were obtained:
[1] = test system: HCV replicon in Huh7 cells; assay: HCV replicon cell-based assay (FRET); set-up: species or system HCV strain 1B; conditions: Hepatitis C virus
Outline: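 Huh7 cells carrying a genotype 1b subgenomic HCV replicon (NS3–NS5B, neo) exposed to compound for 4 days at 37 °C, 0.5% DMSO final. After lysis with reagent containing 10 μM FRET peptide substrate, NS3 protease activity read kinetically at 340/490 nm; EC50 derived.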

[2] = molecular target: T1, human sputum elastase (HS) (Homo sapiens, UniProt P08246); assay: Specificity assay, human sputum elastase; format: biochemical; conditions: 2 hr enzyme-inhibitor pre-incubation
T1 construct: human sputum elastase (HS); from tissue; host or cells: human sputum (from the enzyme's name only)
T1 sequence (P08246 30-267): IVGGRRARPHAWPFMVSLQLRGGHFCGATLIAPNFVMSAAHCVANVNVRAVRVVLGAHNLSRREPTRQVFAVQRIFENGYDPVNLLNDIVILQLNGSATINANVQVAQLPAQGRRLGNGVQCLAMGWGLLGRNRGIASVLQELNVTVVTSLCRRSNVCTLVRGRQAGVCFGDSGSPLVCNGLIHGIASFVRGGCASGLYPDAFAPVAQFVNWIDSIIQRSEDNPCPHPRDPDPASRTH
Procedure: (§1) The specificities of compounds of the present invention were determined against a variety of serine proteases: human sputum elastase (HS), porcine pancreatic elastase (PPE) and human pancreatic chymotrypsin and one cysteine protease: human liver cathepsin B. In all cases a 96-well plate format protocol using colorimetric p-nitroaniline (pNA) substrate specific for each enzyme was used as described previously (CT 2633 application) with some modifications to the serine protease assays.
(§2) Each assay included a 2 hr enzyme-inhibitor pre-incubation at RT followed by addition of substrate and hydrolysis to ˜30% conversion as measured on a Spectramax Pro microplate reader. Compound concentrations varied from 100 to 0.4 μM depending on their potency.
(§3) The final conditions and protocol for the serine protease assays were: • 50 mM Tris(hydroxymethyl)aminomethane hydrochloride (Tris-HCl) pH8, • 0.5M Sodium Sulfate (Na2SO4), 50 mM NaCl, 0.1 mM EDTA, 3% DMSO, • 0.01% Tween-20 with: 133 μM succ-AAA-pNA and 20 nM HS or 8 nM PPE; 100 μM succ-AAPF-pNA and 250 pM Chymotrypsin.
(§4) The percentage of inhibition was calculated using the formula: [1−((UVinh−UVblank)/(UVctl−UVblank))]×100
(§5) A non-linear curve fit was applied to the inhibition-concentration data, and the 50% effective concentration (IC50) was calculated by the use of Excel Xl-fit software.

[3] = molecular target: T2, porcine pancreatic elastase (PPE) (Sus scrofa, UniProt P00772); assay: Specificity assay, porcine pancreatic elastase; format: biochemical; conditions: 2 hr enzyme-inhibitor pre-incubation
T2 construct: porcine pancreatic elastase (PPE); from tissue; host or cells: porcine pancreas (from the enzyme's name only)
T2 sequence (P00772 27-266): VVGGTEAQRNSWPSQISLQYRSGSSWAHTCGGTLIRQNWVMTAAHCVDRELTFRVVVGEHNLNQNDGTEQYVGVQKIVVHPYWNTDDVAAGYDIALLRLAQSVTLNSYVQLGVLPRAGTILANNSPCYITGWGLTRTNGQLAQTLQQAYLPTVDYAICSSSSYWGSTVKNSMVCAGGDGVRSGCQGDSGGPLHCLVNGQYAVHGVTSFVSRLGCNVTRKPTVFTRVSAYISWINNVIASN
Procedure: as §1, §2, §3, §4, §5

`C=CC1C[C@]1(NC(=O)[C@@H]1C[C@@H](Oc2cc(-c3ccccc3)nc3cc(OC)ccc23)CN1C(=O)[C@@H](NC(=O)OC(C)(C)C)C(C)(C)C)C(=O)NS(=O)(=O)c1cccs1` (stereo in doubt) [Compound 1, (1-{4-(7-Methoxy-2-phenylquinolin-4-yloxy)-2-[1-(thiophene-2-sulfonylaminocarbonyl)-2-vinyl-cyclopropylcarbamoyl]-pyrrolidine-1-carbonyl}-2,2-dimethylpropyl)carbamic acid tert-butyl ester] was tested, and the EC50 ([1]; Huh-7, 96 h, Huh7 cells, 4 days, read-out: EC50 value in the replicon assay) was 0.055 µM, the EC50 ([1]; Huh-7, replicon, activity range, read-out: EC50 a, b, c (Activity Table)) was < 0.1 µM and the IC50 [2] was 35 µM. For the same compound, the IC50 [3] was > 50 µM.
